Reference: PubChem BioAssay (NCI)
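The compound was tested at five concentrations on cells cultured in 96-well plates, with a 48-hour exposure period. At the TGI there is no net growth.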 *1 amine or outer side, *2 acyl side, *3 side chain or, on linkers, in order; H or OH if unused. Where a SMILES comes first, the peptide text is derived from it. [ ]: non-standard residue; d: D form. The star is where a group is joined. ξ: configuration not given here. NMeY = CN[C@@H](Cc1ccc(O)cc1)C(=O)O; Ethylenediamine = C(CN[*:2])N[*:1]; ξNMeL = CNC(CC(C)C)C(=O)O; Cbz = O=C(OCc1ccccc1)*; Lac = C[C@H](O)C(=O)O; ξA = CC(N)C(=O)O

Assays:
Test in all cases: NCI anticancer screen, dose series, 48 h
NCI/ADR-RES ovarian = tested on: NCI/ADR-RES ovarian
SNB-19 CNS = tested on: SNB-19 CNS
SR leukemia = tested on: SR leukemia

| Compound | TGI (NCI/ADR-RES ovarian) [µM] | TGI (SNB-19 CNS) [µM] | TGI (SR leukemia) [µM] |
| --- | --- | --- | --- |
| CC(=O)Nc1ccc2c3c(cc(O)c2c1)N(C(=O)CCCCC(=O)N1CC(CCl)c2c1cc(O)c1cc(NC(C)=O)ccc21)CC3CCl (configuration not stated) | > 100 | 5.02 | 0.0278 |
| S=C=Nc1ccc(CSc2nc3ccccc3[nH]2)cc1 | 33 | 86.1 | 65.4 |
| COC(=O)C1CCC(=O)N1CN(C(C)=O)c1cc(OC)ccc1OC (configuration not stated) | > 100 | > 100 | > 100 |
| c1ccc2c(c1)nn1c3ccc4nonc4c3[n-][n+]21 | > 100 | > 100 | > 100 |
| O=C(/C=C/c1ccc(OCc2ccccc2)cc1)NCc1ccc(C(=O)NCCc2c[nH]c3ccccc23)cc1 | > 100 | 29.9 | > 55.3 |
| Cn1c2c(c3ccccc31)CCN=C2C1CCCOC1=O (configuration not stated) | > 100 | > 100 | > 100 |
| COC(=O)c1cc(OS(=O)(=O)C(F)(F)F)c(=O)n2c1CCCC2 | > 100 | > 100 | – |
| Cn1nc2ccc([N+](=O)[O-])cc2[n+]1[O-] | > 100 | > 100 | > 100 |
| CC(=O)NC1C(OC(C)C(=O)NC(C(=O)NC(CCC(=O)NCCCNC2c3ccccc3Nc3cccc([N+](=O)[O-])c32)C(N)=O)C(C)C)C(O)C(CO)OC1(C)OCc1ccccc1 (configuration not stated) | 4.76 | 3.67 | 0.634 |
| Cn1c(=O)c2sc3c4sc5c(=O)n(C)c6ccccc6c5c4sc3c2c2ccccc21 | > 100 | > 100 | > 100 |
| COC(=O)CN(CC(O)C(NC(C)=O)C(O)C=O)C(=O)OCc1ccccc1 (configuration not stated) | > 100 | > 100 | > 100 |
| Cc1ccc(/C=C2/N=C(N/N=C\C(O)C(O)C(O)CO)NC2=O)cc1 (configuration not stated) | > 100 | > 100 | > 100 |
| C=C(Cl)/C(=C\Cl)CCC(Cl)C(C)C (configuration not stated) | > 100 | > 100 | > 100 |
| COc1ccc(C2C(C#N)=C(S)N(C3OC(COC(C)=O)C(OC(C)=O)C(OC(C)=O)C3OC(C)=O)C(C)=C2C(C)=O)cc1 (configuration not stated) | > 100 | > 100 | > 100 |
| COC1=N[C@H](C(C)C)C(OC)=N[C@H]1Cc1ccc(C[C@@H]2N=C(OC)[C@@H](C(C)C)N=C2OC)s1 | > 100 | > 100 | 51 |
| O=C1C[C@H](COCc2ccccc2)NC(=O)C[C@H](COCc2ccccc2)NC(=O)C[C@H](COCc2ccccc2)N1 | > 100 | > 100 | > 100 |
| CSc1nc(Nc2ccccc2Cl)c2c(N)nn(C)c2n1 | > 100 | > 100 | – |
| CCOC(=O)Nc1sc2c(c1C#N)CC(C)CC2 (configuration not stated) | 7.86 | 27 | 18.4 |
| CC(C)=NNc1snnc1C(N)=O | > 100 | > 100 | – |
| CC(C)(C)c1cc2c(c(C(C)(C)C)c1O)CC(=O)O2 | 54.7 | > 100 | – |
| Cc1c(O)c(OC2OC(CO)C(O)C(O)C2O)cc2c1C=C[C@@H]1[C@@]2(C)C(=O)C[C@]2(C)[C@@H]([C@@](C)(O)C(O)/C=C/C(C)(C)O)[C@H](O)C[C@@]12C (some centres not stated) | > 100 | > 100 | > 100 |

| Compound | TGI (NCI/ADR-RES ovarian) [µM] | TGI (SNB-19 CNS) [µM] | TGI (SR leukemia) [µM] |
| --- | --- | --- | --- |
| COc1ccc(/C=C2\C[C@H]3[C@@H]4CC=C5C[C@@H](OC(C)=O)CC[C@]5(C)[C@H]4CC[C@]3(C)\C2=N\O)cc1OC | > 100 | > 100 | > 100 |
| N#Cc1cc2c(cc1C#N)/C(=N\c1cccc(N)n1)N=C2Nc1cccc(N)n1 | > 100 | > 100 | > 100 |
| Cc1ccc(S(=O)(=O)NC(=O)Nc2cccc(S(N)(=O)=O)c2)cc1 | > 100 | > 100 | > 100 |
| CC(C)(C)OC(=O)N1CC(CCl)c2ccc(O)cc21 (configuration not stated) | 3.68 | 10.6 | > 100 |
| O/N=C1\CC2(N3CCOCC3)CCC1(c1ccccc1)CC2 | > 100 | > 100 | > 100 |
| Cc1cc(C)c2c(n1)S(=O)(=O)N(CCCN1CCN(c3cccc(Cl)c3)CC1)/C(=C(\O)c1ccccc1)C2=O | > 100 | > 100 | 68.9 |
| c1csc(-c2nccc3c2[nH]c2ccccc23)c1 | 54.8 | > 100 | 48 |
| O=[N+]([O-])c1ccc(-n2nc3ccc4c(no[n+]4[O-])c3[n+]2[O-])c([N+](=O)[O-])c1 | 11 | 16.5 | > 21.4 |
| CNCCN[C@@H]1c2cc3c(cc2[C@@H](c2cc(OC)c(O)c(OC)c2)[C@H]2C(=O)OC[C@@H]21)OCO3 | > 100 | 11.9 | 0.287 |
| CNC(=O)N(CCC#N)CCN(C(=O)N(C)C)c1ccccc1 | > 100 | > 100 | > 100 |
| O=C1C2=Cc3ccccc3OC2(O)Oc2ccccc21 (configuration not stated) | > 100 | – | > 100 |
| COc1cc2oc(=O)cc(C)c2c(OC)c1O | > 100 | > 100 | > 100 |
| C=C1[C@H]2O[C@H]2[C@@H](OC(C)=O)[C@@]2(C)[C@@H](OC(C)=O)C[C@@H](OC(=O)CCC)[C@@](C)(O)[C@@H]2[C@@H](OC(C)=O)[C@]2(O)[C@@H](C)C(=O)O[C@H]2[C@H]1Cl | > 100 | > 100 | – |
| COc1ccc(C[C@@H](C(=O)NCCNC(=O)C(CC(C)C)N(C)C(=O)[C@@H]2CCCN2C(=O)[C@H](C)O)N(C)C(=O)[C@@H]2CCCN2C(=O)[C@H](CC(C)C)NC(=O)C(C)NC(=O)OCc2ccccc2)cc1 (some centres not stated) (Cbz-[ξA]LP[NMeY](Me)-{Ethylenediamine-ξNMeL-Pro-Lac}) | > 100 | > 100 | > 100 |
| O=C1c2c(Br)sc(Br)c2[C@@H](Cl)[C@H]1Cl | > 100 | 38.5 | 9.14 |
| COc1ccc2c(c1)CC1COc3cc(OC)ccc3C1O2 (configuration not stated) | > 100 | – | > 100 |
| CCOc1ccccc1NC(=O)C(=O)C(/C(=N/N)C(=O)OC)c1nc2ccc([N+](=O)[O-])cc2[nH]c1=O (configuration not stated) | > 100 | – | > 100 |
| C=C1C(=O)O[C@H]2C1C[C@@H](O)/C(C)=C/CC[C@@]1(C)O[C@H]21 (some centres not stated) | > 87.9 | > 100 | 44.9 |
| CN(CCNC(=O)c1c[nH]c2c1ccc1ccccc12)CCNC(=O)c1c[nH]c2c1ccc1ccccc12 | 13.1 | 6.23 | 4.69 |
| c1ccc2c(c1)nc1n2CSCC1 | > 100 | > 100 | > 100 |
| CN(C)C1(N(C)C)Oc2c(c(=O)n(C)c(=O)n2C)C(c2ccc(C(F)(F)F)cc2)C1(F)F (configuration not stated) | > 100 | > 100 | – |
